Laboratory results: BindingDB's records for doi:10.7270/Q2GH9GBT (Nmmlsc, 2008)
Where a name gives a salt, the structure may show the parent alone.

The molecules below were run against T1, Bcl-2-like protein 10 [11-204] (Homo sapiens, UniProt Q9HD36) (assay: modulators of Bcl-B/Bim peptide interaction – biochemical, multiplexed, bead-based flow cytometry, human, dose response (AID 1327)). Details: not given.
T1 construct: 11-204
T1 sequence (Q9HD36 whole entry): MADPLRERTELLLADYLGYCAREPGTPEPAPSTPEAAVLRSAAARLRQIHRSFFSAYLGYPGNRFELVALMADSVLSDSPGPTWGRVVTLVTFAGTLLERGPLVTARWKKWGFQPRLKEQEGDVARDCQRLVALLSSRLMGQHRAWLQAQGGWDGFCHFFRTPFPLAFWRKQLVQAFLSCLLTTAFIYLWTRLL
Cc1nc2ncccn2c1-c1csc(Nc2ccc(O)cc2)n1 showed an EC50 of 0.12 µM. COc1ccc(CC(=O)Nc2ccc(-c3nc4cc(C)ccc4o3)c(O)c2)cc1OC [2-(3,4-dimethoxyphenyl)-N-[(4Z)-3-keto-4-(5-methyl-3H-1,3-benzoxazol-2-ylidene)cyclohexa-1,5-dien-1-yl]acetamide] gave an EC50 of 14.8 µM. In the case of Nc1ccc(N2CCN(CCCCN3C(=O)C4CCCN4C3=O)CC2)cc1 (stereo unspecified) [2-[4-[4-(4-aminophenyl)-1-piperazinyl]butyl]-5,6,7,7a-tetrahydropyrrolo[1,2-c]imidazole-1,3-dione;hydrate;hydrochloride], the EC50 is reported as 52.5 µM. COc1ccccc1Cn1nnc2c(=O)[nH]c(C3CCN(C(=O)c4ccc(C)cc4)CC3)nc21 [3-[(2-methoxyphenyl)methyl]-5-[1-(4-methylphenyl)carbonylpiperidin-4-yl]-2H-[1,2,3]triazolo[4,5-d]pyrimidin-7-one] was tested, and the EC50 was 12.2 µM. Cc1cc(N)ccc1N1CCCC1 [3-methyl-4-(1-pyrrolidinyl)aniline;hydrochloride] showed an EC50 of 2.13 µM. In the case of COc1ccccc1Nc1nc(-c2c(C)nc3ncccn23)cs1 [(2-methoxyphenyl)-[4-(2-methylimidazo[1,2-a]pyrimidin-3-yl)thiazol-2-yl]amine;hydrobromide], the EC50 is reported as 0.82 µM. Molecule CN(C)[C@@H]1C(=O)C(C(=O)NCN2CCCC2)C(=O)[C@@]2(O)C(=O)C3C(=O)c4c(O)cccc4[C@@](C)(O)C3CC12 (stereo partly drawn) [(2Z,4S,6S,12aS)-4-(dimethylamino)-6,10,11,12a-tetrahydroxy-2-[hydroxy-(1-pyrrolidinylmethylamino)methylidene]-6-methyl-4,4a,5,5a-tetrahydrotetracene-1,3,12-trione] has an EC50 of 14.3 µM. Molecule COc1cc(CN=Nc2nn3cnnc3c3ccccc23)ccc1O [(4E)-2-methoxy-4-[[2-([1,2,4]triazolo[3,4-a]phthalazin-6-yl)hydrazinyl]methylidene]cyclohexa-2,5-dien-1-one] has an EC50 of 1.07 µM. Work on O=c1c2c(n3nnnc3n1Cc1ccccc1)-c1ccccc1CC21CCCC1 [MLS000030575] yielded an EC50 of 5.52 µM. Molecule Clc1nc(NCc2cccnc2)nc(N2CCOCC2)n1 [MLS000121154] has an EC50 of 8.51 µM. Molecule Clc1ccc2c(N=NCc3ccccc3Br)ccnc2c1 [MLS000336087] has an EC50 of 9.57 µM. For O=S1(=O)N=C(N(CCO)N=Cc2ccncc2)c2ccccc21 [MLS000682942], the EC50 was 11.8 µM. In the case of OCCN1CCN(CCCc2c3c(cc4c2CCC4)CCC3)CC1 [MLS000698424], the EC50 is reported as 15.5 µM. In the case of COc1cccc2c(SCC(=O)NN=Cc3ccc(O)cc3O)cc(C)nc12 [N'-[(E)-(2-hydroxy-4-oxo-1-cyclohexa-2,5-dienylidene)methyl]-2-[(8-methoxy-2-methyl-4-quinolinyl)thio]acetohydrazide], the EC50 is reported as 9.13 µM. COc1cc(C=NNC(=O)CN(Cc2ccco2)S(=O)(=O)c2ccccc2)ccc1O [N-(2-furanylmethyl)-N-[2-[[(E)-(3-methoxy-4-oxo-1-cyclohexa-2,5-dienylidene)methyl]hydrazo]-2-oxoethyl]benzenesulfonamide] was tested, and the EC50 was 7.81 µM. For COc1cccc(CN=Nc2nn3cnnc3c3ccccc23)c1 [N-[1-(3-Methoxy-phenyl)-meth-(E)-ylidene]-N'-[1,2,4]triazolo[3,4-a]phthalazin-6-yl-hydrazine], the EC50 was 0.98 µM. Clc1ccc2c(N=NCc3ccc(Br)cc3)ccnc2c1 [N-[(4-bromophenyl)methylideneamino]-7-chloranyl-quinolin-4-amine] gave an EC50 of 20.9 µM. Cc1cccc(OCC(=O)NCC(=O)NN=Cc2cc(Br)ccc2OCc2ccccc2)c1 [N-[(5-bromanyl-2-phenylmethoxy-phenyl)methylideneamino]-2-[2-(3-methylphenoxy)ethanoylamino]ethanamide] was tested, and the EC50 was 5.53 µM.

Same assay, conditions: inactive by the depositor's call
Work on Cc1ccc(C)n1-c1cccc(C(=O)O)c1 yielded an EC50 of 49.5 µM. Work on O=C(Nc1ccc2nc(-c3ccco3)c(-c3ccco3)nc2c1)N1CCCCCC1 yielded an EC50 of 33.3 µM. Work on CN1CCN(C2=C(Cl)C(=O)C(c3cnc(N4CCCCC4)s3)=C(Cl)C2=O)CC1 yielded an EC50 of 3.42 µM. With CCOC(=O)c1ccc(Nc2nc(C(=O)OCC)nc3ccccc23)cc1 the EC50 was 2.18 µM. CCOCCCn1c(N)c(C(=O)Nc2sc3c(c2C(=O)OC)CCCC3)c2nc3ccccc3nc21 was tested, and the EC50 was 1.28 µM. Work on O=S1(=O)N=C(N(CCO)N=C/C=C/c2ccccc2)c2ccccc21 yielded an EC50 of 11.7 µM. Work on CCOC(=O)c1c2c3c(cccc3[nH]c1=O)C(=O)c1ccccc1-2 yielded an EC50 of 3.53 µM. CCN(CC)c1ccc(-c2nn3c(-c4ccccc4OC)nnc3s2)cc1 showed an EC50 of 21.7 µM. In the case of O=C(NCc1ccccc1)c1ccc2nc(-c3ccco3)c(-c3ccco3)nc2c1 [2,3-bis(furan-2-yl)-N-(phenylmethyl)quinoxaline-6-carboxamide], the EC50 is reported as 20.6 µM. For O=C(Nc1ccccc1)c1ccc2nc(-c3ccco3)c(-c3ccco3)nc2c1 [2,3-di-2-furyl-N-phenyl-6-quinoxalinecarboxamide], the EC50 was 33.8 µM. O=C(COc1ccccc1)N1CCN(c2ncnc3c2cnn3-c2ccccc2)CC1 [2-Phenoxy-1-[4-(1-phenyl-1H-pyrazolo[3,4-d]pyrimidin-4-yl)-piperazin-1-yl]-ethanone] was tested, and the EC50 was 19.2 µM. For Cc1cccc(C=NN(CCO)C2=NS(=O)(=O)c3ccccc32)c1 [2-[(1,1-dioxo-1,2-benzothiazol-3-yl)-[(3-methylphenyl)methylideneamino]amino]ethanol], the EC50 was 38.7 µM. Work on Cc1cc(OCc2cn3cccnc3n2)ccc1Cl [2-[(4-chloranyl-3-methyl-phenoxy)methyl]imidazo[1,2-a]pyrimidine] yielded an EC50 of 17.3 µM. Work on O=S1(=O)N=C(N(CCO)N=Cc2ccccc2)c2ccccc21 [2-[(benzylideneamino)-(1,1-dioxo-1,2-benzothiazol-3-yl)amino]ethanol] yielded an EC50 of 12.8 µM. O=C(CSc1ccc2nnc(-c3ccccn3)n2n1)Nc1nccs1 [2-[[3-(2-pyridinyl)-[1,2,4]triazolo[4,3-b]pyridazin-6-yl]thio]-N-(2-thiazolyl)acetamide] was tested, and the EC50 was 5.54 µM. Molecule O=C(NCCCN1CCN(CCCNC(=O)c2cc([N+](=O)[O-])ccc2Cl)CC1)c1cc([N+](=O)[O-])ccc1Cl [2-chloranyl-N-[3-[4-[3-[(2-chloranyl-5-nitro-phenyl)carbonylamino]propyl]piperazin-1-yl]propyl]-5-nitro-benzamide] has an EC50 of 43.4 µM. Cc1nc2ncccn2c1-c1csc(Nc2ccccc2)n1 [4-(2-methyl-3-imidazo[1,2-a]pyrimidinyl)-N-phenyl-2-thiazolamine] gave an EC50 of 1.38 µM. With COc1ccccc1-n1c(-c2ccc(Cl)cc2)c[nH]c1=S [4-(4-chlorophenyl)-3-(2-methoxyphenyl)-1H-imidazole-2-thione] the EC50 was 11.4 µM. Cc1cc(C)nc(SCc2cc(=O)c(OC(=O)c3ccc(Cl)c([N+](=O)[O-])c3)co2)n1 [4-chloro-3-nitrobenzoic acid [6-[[(4,6-dimethyl-2-pyrimidinyl)thio]methyl]-4-oxo-3-pyranyl] ester] was tested, and the EC50 was 1.51 µM. COc1ccc(C2=Nn3c(nnc3-c3ccco3)SC2)cc1OC [6-(3,4-Dimethoxy-phenyl)-3-furan-2-yl-7H-[1,2,4]triazolo[3,4-b][1,3,4]thiadiazine] showed an EC50 of 1.15 µM. For COc1ccc(C2=Nn3c(nnc3-c3ccccn3)SC2)cc1OC [6-(3,4-dimethoxyphenyl)-3-(2-pyridinyl)-7H-[1,2,4]triazolo[3,4-b][1,3,4]thiadiazine], the EC50 was 6.18 µM. With CN(N=C/C=C/c1ccccc1)C1=NS(=O)(=O)c2ccccc21 [(1E,2E)-3-phenylacrylaldehyde (1,1-dioxido-1,2-benzisothiazol-3-yl)(methyl)hydrazone] the EC50 was 1.94 µM. With Cc1cc(-c2nnc3n2N=C(c2ccc(-c4ccccc4)cc2)CS3)[nH]n1 [MLS000082991] the EC50 was 36.4 µM. Molecule O=C1NC(=O)C2(Cc3c(nc4ccccn4c3=O)N3CCCCCC32)C(=O)N1Cc1ccccc1 (stereo unspecified) [MLS000083668] has an EC50 of 18.2 µM. Cc1cc2n(c1)CCn1c(C)ccc1-2 [MLS000104384] was tested, and the EC50 was 11.8 µM. O=C(Nc1ccncc1)c1cc2ccccc2o1 [MLS000109378] gave an EC50 of 62.1 µM. For CCOC(=O)C1CCN(C(=O)Nc2ccc3nc(-c4ccco4)c(-c4ccco4)nc3c2)CC1 [MLS000113285], the EC50 was 46.4 µM. Cc1cc(C)cc(NS(=O)(=O)c2ccc3c(c2)c(=O)n(C)c(=O)n3C)c1 [MLS000521783] was tested, and the EC50 was 17.4 µM. COCCCn1c(N)c(C(=O)Nc2sc3c(c2C(=O)OC)CCCC3)c2nc3ccccc3nc21 [MLS000595323] gave an EC50 of 1.39 µM. With COc1ccc(C)cc1-n1c(=O)c2ccccc2c2ccccc2c1=O [MLS000682999] the EC50 was 15.6 µM. Work on Cc1ccnc(SCc2cc(=O)c(OC(=O)c3ccc(Cl)c([N+](=O)[O-])c3)co2)n1 [MLS000696790] yielded an EC50 of 6.62 µM. Molecule CCOC(=O)c1c(O)nc2ccc(Cl)c3c2c1-c1ccccc1C3=O [MLS000704595] has an EC50 of 1.32 µM. Cc1ccc(OCc2cn3cccnc3n2)cc1 [MLS000723172] was tested, and the EC50 was 30.6 µM. In the case of COc1ccccc1-n1c(-c2ccccc2)c[nH]c1=S [MLS001007615], the EC50 is reported as 32.1 µM. c1ccc(Nc2cccc(Nc3ccccc3)n2)cc1 [N,N'-diphenyl-2,6-pyridinediamine] gave an EC50 of 7.82 µM. With CC(=O)c1ccc(NC(=O)c2ccc3nc(-c4ccco4)c(-c4ccco4)nc3c2)cc1 [N-(4-acetylphenyl)-2,3-di-2-furyl-6-quinoxalinecarboxamide] the EC50 was 33.7 µM. Molecule COc1ccc(CCNC(=O)c2ccc3nc(-c4ccco4)c(-c4ccco4)nc3c2)cc1OC [N-[2-(3,4-dimethoxyphenyl)ethyl]-2,3-di-2-furylquinoxaline-6-carboxamide] has an EC50 of 52.4 µM. Work on Cc1ccc(C=NN(C)C2=NS(=O)(=O)c3ccccc32)o1 [N-methyl-N-[(5-methyl-2-furanyl)methylideneamino]-1,1-dioxo-1,2-benzothiazol-3-amine] yielded an EC50 of 7.38 µM. CSc1nnc2c3cc(C)ccc3n(Cc3ccccc3)c2n1 [SMR000046397] gave an EC50 of 30.7 µM. c1ccc(-c2nc(N3CCCCCC3)c3ccccc3n2)nc1 [SMR000046752] gave an EC50 of 16.7 µM. O=C(Nc1ccc2nc(-c3ccco3)c(-c3ccco3)nc2c1)NC1CC1 [SMR000118524] was tested, and the EC50 was 45.1 µM. In the case of C#CCn1cc(C=C2C(=O)c3ccccc3C2=O)c2ccccc21 [SMR000196125], the EC50 is reported as 17.8 µM. With CN(N=Cc1cccnc1)C1=NS(=O)(=O)c2ccccc21 [SMR000207578] the EC50 was 20 µM.
